# Tests used:
# [1] = system: Human breast cancer cells MCF-7; assay: MCF-7 cell proliferation experiment; format: cell-based; conditions: Homo sapiens, MCF7; MCF-7 cells, 72 hours, Cell Titer-Glo
# Procedure: Test Example 2: MCF-7 Cell Proliferation Experiment
# Human breast cancer cells MCF-7 (HTB-22, purchased from ATCC) were inoculated into a 96-well plate. The culture medium was an MEM (Hyclone, SH30024.01B) culture medium containing 10% of FBS (Gibco, 10099-141), 1% of pyruvic acid (Sigma, S8636), and 1% of nonessential amino acid (Sigma, M7145), and the inoculation density was 4,000 cells/well. The cells were cultured at 37° C., 5% CO2. The compound was prepared into a 20 mM stock solution, which was subjected to gradient dilution to a final concentration of […] with 100% DMSO (Sigma, D2650) and then diluted 20 folds with a culture medium containing 2% of FBS. After 24 hours of culture, the culture medium was removed, 90 μL of a culture medium containing 2% of FBS and 10 μL of drug were added to each well, while 10 μL of DMSO was added to the control group, and they were gently shaken and mixed. The blank group only contained 100 μL of 2% FBS culture medium. They were placed in an incubator and cultured at 37° C., 5% CO2. After 72 hours, 50 μL of mixed Cell Titer-Glo (Promega, G7571) was added. They were shaken and mixed uniformly, and placed at room temperature for 10 min. The chemiluminescence signal value was determined. The negative control was 0.5% DMSO well.
# ERα = ERα (Homo sapiens (Human), UniProt P03372); assay: Degradation effect of compound on ERα (ERα DuoSet IC ELISA in MCF-7 cells); format: cell-based; conditions: 24 h with compound, read-out: IC50 value of ERα degradation by compound
# ERα, sequence (P03372 whole entry): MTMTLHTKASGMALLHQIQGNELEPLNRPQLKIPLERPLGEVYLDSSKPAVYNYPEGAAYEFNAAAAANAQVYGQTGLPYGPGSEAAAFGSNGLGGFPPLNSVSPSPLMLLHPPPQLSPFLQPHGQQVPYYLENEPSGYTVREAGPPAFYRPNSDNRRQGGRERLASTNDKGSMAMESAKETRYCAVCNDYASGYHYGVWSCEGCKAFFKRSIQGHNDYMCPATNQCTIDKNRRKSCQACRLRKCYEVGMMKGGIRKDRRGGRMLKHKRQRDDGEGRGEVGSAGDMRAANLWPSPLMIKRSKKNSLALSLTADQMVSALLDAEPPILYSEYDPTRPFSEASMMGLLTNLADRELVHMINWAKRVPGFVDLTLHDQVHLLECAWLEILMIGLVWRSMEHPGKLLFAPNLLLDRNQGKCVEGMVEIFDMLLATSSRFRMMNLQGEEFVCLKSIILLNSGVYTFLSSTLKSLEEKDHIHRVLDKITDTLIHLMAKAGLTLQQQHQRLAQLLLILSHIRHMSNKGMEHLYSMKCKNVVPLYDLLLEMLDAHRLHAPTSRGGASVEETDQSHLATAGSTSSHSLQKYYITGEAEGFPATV
# Procedure: In this test example, ERα DuoSet IC ELISA Kit (R&D, DYC5715) was used to detect the degradation effect of the compound on ERα. On the first day of the experiment, human breast cancer cells MCF-7 (the source was as above) were inoculated into a 24-well plate. The culture medium was an MEM culture medium containing 10% of activated-carbon-treated FBS (Tocyto, UT61204), 1% of pyruvic acid and 1% of nonessential amino acid. The inoculation density was 150,000 cells/well. The cells were cultured at 37° C., 5% CO2 for 24 h.
# On the second day of the experiment, the compound to be tested was diluted in gradient and added to a 24-well plate containing cells. The cells were cultured for 24 h at 37° C., 5% CO2. ERα capture antibody was diluted to 1 μg/ml with PBS (Corning, 21-040-CVR) and added to a 96-well plate at 100 μL/well, and the plate was […] coated overnight at room temperature.
# On the third day of the experiment, the coated 96-well plate was washed three times with PBS, 300 μL of a blocking solution (R&D, DY995) was added to each well, and the plate was blocked at room temperature for 1 h. The 24-well plate was washed once with PBS, and the residual liquid was sucked off. […] The diluted cell lysate was taken and added to the blocked 96-well plate, with 100 μL per well, and incubated at room temperature for 2 h. The plate was washed three times with a washing solution (R&D, WA126), and a primary antibody was then added. After incubation for 1 h, the 96-well plate was washed four times, a secondary antibody was added, and incubation was carried out at room temperature in the dark for 30 min. The plate was washed four times with the washing solution, and TMB (R&D, DY999) was added. After 15 minutes of development, the reaction was terminated with a stop solution (R&D, DY994), and the light absorption at 450 nm was read.
# GST-ERα-LBD = GST-ERα-LBD (Homo sapiens (Human), UniProt P03372); assay: ERα TR-FRET test; format: biochemical; conditions: estradiol final concentration 1.5 nM, biotin-SRC2
# GST-ERα-LBD, sequence (P03372 311-547): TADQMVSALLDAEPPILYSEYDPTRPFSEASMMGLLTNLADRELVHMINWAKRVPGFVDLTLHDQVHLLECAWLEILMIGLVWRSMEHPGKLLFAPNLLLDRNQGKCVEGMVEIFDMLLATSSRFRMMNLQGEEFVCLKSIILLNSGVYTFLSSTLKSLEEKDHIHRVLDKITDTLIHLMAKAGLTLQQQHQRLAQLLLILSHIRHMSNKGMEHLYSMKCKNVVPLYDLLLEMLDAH
# Procedure: 1× Tris-HCl (Sigma, PHG0002) protein buffer was prepared and mixed for later use. The compound to be detected was prepared into a stock solution with a concentration of 2 mM and then subjected to serial 3-fold gradient dilution, resulting in a total of 10 concentrations.
# Preparation of 1× protein mixed solution: firstly, 2× GST-ERα-LBD (Invitrogen, A15677)/MAb anti-GST-Eu (Cisbio, 61GSTKLA) mixed solution was prepared according to the following table.
# 2× biotin-SRC2/streptavidin-XL665 (Cisbio, 610SAXLA) mixed solution was prepared.
# The above 2× GST-NR-LBD/ MAb anti-GST-Eu solution and 2× biotin-SRC2/streptavidin-XL665 solution were uniformly mixed at a volume ratio of 1:1; and the 1× protein mixed solution was added to each well of a 384-well plate, with 20 μL being added per well, the 384-well plate was put into a centrifuge and centrifuged at room temperature at 1000 rpm for 10 seconds, and it was taken out, then left to stand at room temperature for 3 h, and then read by EnVision multifunctional microplate reader.
# The inhibition rate was calculated according to the following formula: […]
# The data were imported into Graphpad Prism, and Log(agonist) vs. response-variable slope was used for curve fitting.
# Y=Bottom+(Top−Bottom)/(1+10^((LogEC50−X)*HillSlope)) Fitting formula
# [2] = Stability in human liver microsomes in vitro; format: in vitro ADME; conditions: human liver microsomes; for half-life: microsome protein 1 mg/mL working solution, NADPH; for CLint scaled: scaled to liver; for microsomal CLint: read-out: CLint(mic)
# Procedure: Test Example 4: Test for Stability in Human Liver Microsomes In Vitro Eight 96-well incubation plates were prepared and named [NT], Blank60 and NCF60, respectively. […] No test compound or control compound was added to Blank60 plate, and samples were taken after incubation for 60 min. NCF60 plate was incubated with a potassium phosphate buffer instead of an NADPH regeneration system solution (Sigma, N0505) for 60 min. […] Only the microsome working solution was added to Blank60 plate, and the incubation plates Blank60, T5, T15, T30, T45 and T60 except T0 and NCF60 were then placed in a water bath at 37° C. and pre-incubated for about 10 min. To the samples of T0 plate, 600 μL of a stop solution (acetonitrile:methanol (95:5, v/v) solution containing 100 ng/mL of tolbutamide (Sigma, T0891)) was added first, and the NADPH regeneration system working solution was then added. 98 μL of a potassium phosphate buffer was added to each well of NCF60 plate and incubated for 60 min. After the pre-incubation in the incubation plates Blank60, T5, T15, T30, T45 and T60 was completed, 98 μL of the NADPH regeneration system working solution was added to each sample well to initiate the reaction. After an appropriate incubation time (such as 5, 15, 30, 45 and 60 min), 600 μL of a stop solution was added to each sample well and the control sample well in Blank60, […] the reaction. All the sample plates were shaken uniformly and centrifuged at 3220×g for 20 min. 200 μL of test sample supernatant was separately taken and diluted in 200 μL of an aqueous solution containing 0.3% formic acid for LC-MS/MS analysis, and 100 μL of control sample supernatant was taken and diluted in 300 μL of pure water for LC-MS/MS analysis. Calculation was performed according to the following formula: [formula] [formula] [formula] [formula] [formula] [formula]
smiles,measurement,setting,value
"COc1cc(NC2CN(CCCF)C2)cc(F)c1[C@@H]1c2ccc3[nH]c(=O)oc3c2C[C@@H](C)N1CC(F)(F)F [Example 34, (6S,8R)-6-(4-((1-(3-fluoropropyl)azetidin-3-yl)amino)-2-methoxy-6-fluoro-phenyl)-8-methyl-7-(2,2,2-trifluoroethyl)-6,7,8,9-6,7,8,9-tetrahydrooxazolo[5,4-f]isoquinolin-2(3H)-one]",IC50,[1],0.19 nM
same,DC50,ERα,0.24 nM
same,IC50,GST-ERα-LBD,19.4 nM
same,half-life,[2],1.78 h
same,CLint scaled,[2],8.9 mL/min/kg
same,microsomal CLint,[2],10.1 µL/min/mg
COc1cc(NC2CN(CCCF)C2)ccc1[C@@H]1c2ccc3[nH]c(=O)oc3c2C[C@@H](C)N1CC1(F)CC1 [Example 31],IC50,[1],0.85 nM
same,DC50,ERα,0.75 nM
same,IC50,GST-ERα-LBD,45.6 nM
same,half-life,[2],1.39 h
same,CLint scaled,[2],18.4 mL/min/kg
same,microsomal CLint,[2],17.5 µL/min/mg
CC(C)CN1[C@H](c2c(F)cc(OCCN3CC(CF)C3)cc2F)c2ccc3[nH]c(=O)oc3c2C[C@H]1C [Example 1],IC50,[1],0.39 nM
same,DC50,ERα,0.62 nM
same,IC50,GST-ERα-LBD,9 nM
same,half-life,[2],1.53 h
same,CLint scaled,[2],13.6 mL/min/kg
same,microsomal CLint,[2],15.1 µL/min/mg
"COc1cc(NC2CN(CCCF)C2)cc(Cl)c1[C@@H]1c2ccc3[nH]c(=O)oc3c2C[C@@H](C)N1CC(F)(F)F [Example 33, (6S,8R)-6-(4-((1-(3-fluoropropyl)azetidin-3-yl)amino)-2-methoxy-6-chloro-phenyl)-8-methyl-7-(2,2,2-trifluoroethyl)-6,7,8,9-6,7,8,9-tetrahydrooxazolo[5,4-f]isoquinolin-2(3H)-one]",IC50,[1],0.39 nM
same,DC50,ERα,0.35 nM
same,IC50,GST-ERα-LBD,11.8 nM
same,half-life,[2],1.85 h
same,CLint scaled,[2],7.9 mL/min/kg
same,microsomal CLint,[2],8.3 µL/min/mg
"C[C@@H]1Cc2c(ccc3[nH]c(=O)oc23)[C@@H](c2ccc(NC3CN(CCCF)C3)cn2)N1CC(F)(F)F [Example 26, (6S,8R)-6-(5-((1-(3-fluoropropane)azetidin-3-yl)amino)pyridin-2-yl)-8-methyl-7-(2,2,2-trifluoroethyl)-6,7,8,9-tetrahydroxazolo[5,4-f]isoquinolin-2(3H)-one]",IC50,[1],0.55 nM
same,IC50,GST-ERα-LBD,58.4 nM
"COc1cc(O[C@H]2CCN(CCCF)C2)ccc1[C@@H]1c2ccc3[nH]c(=O)oc3c2C[C@@H](C)N1CC(F)(F)F [Example 30, (6S,8R)-6-(4-(((S)-1-(3-fluoropropyl)pyrrolidin-3-yl)oxy)-2-methoxyphenyl)-8-methyl-7-(2,2,2-trifluoroethyl)-6,7,8,9-tetrahydroxazolo[5,4-f]isoquinolin-2(3H)-one]",IC50,[1],0.21 nM
same,DC50,ERα,0.35 nM
same,IC50,GST-ERα-LBD,8.85 nM
same,half-life,[2],1.58 h
same,CLint scaled,[2],14.4 mL/min/kg
same,microsomal CLint,[2],15.8 µL/min/mg
"C[C@@H]1Cc2c(ccc3[nH]c(=O)oc23)[C@@H](c2c(F)cc(N3CC4(CN(CCF)C4)C3)cc2F)N1CC(F)(F)CO [Example 14, (6S,8R)-7-(2,2-difluoro-3-hydroxypropyl)-6-(2,6-difluoro-4-(6-(2-fluoroethyl)-2,6-diazspiro[3.3]hept-2-yl)phenyl)-8-methyl-6,7,8,9-tetrahydrooxazolo[5,4-f]isoquinolin-2(3H)-one]",IC50,[1],0.44 nM
same,IC50,GST-ERα-LBD,40.3 nM
same,half-life,[2],1.82 h
same,CLint scaled,[2],8.7 mL/min/kg
same,microsomal CLint,[2],9.5 µL/min/mg
"C[C@@H]1Cc2c(ccc3[nH]c(=O)oc23)[C@@H](c2c(F)cc(NC3CN(CCCF)C3)cc2F)N1CC(F)(F)CO [Example 9, (6S,8R)-7-(2,2-difluoro-3-hydroxypropyl)-6-(2,6-difluoro-4-((1-(3-fluoropropyl)azetidin-3-yl)amino)phenyl)-8-methyl-6,7,8,9-tetrahydrooxazolo[5,4-f]isoquinolin-2(3H)-one]",IC50,[1],0.19 nM
same,DC50,ERα,0.39 nM
same,IC50,GST-ERα-LBD,21.6 nM

# — patent publication US20240217988A1, “ESTROGEN RECEPTOR ANTAGONIST” (Shenzhen Forward Pharmaceuticals Co., Limited, priority 2021, published 2024)
